# Results as given in patent US9688695B2, “Imidazothiadiazole and imidazopyrazine derivatives as protease activated receptor 4 (PAR4) inhibitors for treating platelet aggregation” (BRISTOL-MYERS SQUIBB COMPANY, priority 2012, dated 2017).
# Molecular target: PAR4 (Homo sapiens (Human), UniProt Q96RI0)
# Test: FLIPR assay in PAR4-expressing HEK293 cells (PAR4 antagonist activity, calcium mobilization)
# Type: cell-based
# Details: H-Ala-Phe(4-F)-Pro-Gly-Trp-Leu-Val-Lys-Asn-Gly-NH2-induced calcium mobilization
# Excerpt: The FLIPR assay is an exemplary in vitro assay for measuring the activity of the PAR4 antagonists of the present invention. In this assay, intracellular calcium mobilization is induced in PAR4 expressing cells by a PAR4 agonist and calcium mobilization is monitored. See, e.g., Example A.
# HEK293 cells stably expressing PAR4 were generated by a standard method of transfection of human […] cDNA expression vector or by RAGE technology from Athersys Inc. (Cleveland, Ohio) and selected based on PAR4 protein expression of mRNA expression. […] These cells express endogenous PAR1 and can elicit calcium signal upon stimulation with PAR1 agonist peptide.
# Counter screens for agonist activity and PAR1 antagonist activity were also performed. Briefly, HEK293 EBNA PAR4 clone 20664.1J cells were plated 24 hrs. prior to experiment in 384 well, Poly-D-Lysine coated, black, clear bottom plates (Greiner Bio-One, Monroe, N.C.). Cells were plated at 20,000 cells/well in […] growth medium and incubated at 37° C. with 5% CO2 overnight. At time of assay, media was replaced with 40 μl 1× Hank's Buffered Saline Solution (HBSS) (with 10 mM HEPES) and 20 μl test compound also diluted in 1×HBSS buffer was added at various concentrations and 0.67% DMSO final concentration on the FDSS for agonist measurement. The cells were then incubated for 30 minutes at room temperature followed by addition of 20 μl of agonist peptide for antagonist measurement on the FDSS.
# As indicated above, the FLIPR assay, an in vitro assay, measures the PAR4 antagonist activity of compounds tested as described in Example A. The PRP assay, an in vitro assay, measures the PAR4 antagonist assay of the compounds tested in the presence of plasma proteins and thrombin agonist as described in Example C.
# Sequence of PAR4 (Q96RI0 18-385): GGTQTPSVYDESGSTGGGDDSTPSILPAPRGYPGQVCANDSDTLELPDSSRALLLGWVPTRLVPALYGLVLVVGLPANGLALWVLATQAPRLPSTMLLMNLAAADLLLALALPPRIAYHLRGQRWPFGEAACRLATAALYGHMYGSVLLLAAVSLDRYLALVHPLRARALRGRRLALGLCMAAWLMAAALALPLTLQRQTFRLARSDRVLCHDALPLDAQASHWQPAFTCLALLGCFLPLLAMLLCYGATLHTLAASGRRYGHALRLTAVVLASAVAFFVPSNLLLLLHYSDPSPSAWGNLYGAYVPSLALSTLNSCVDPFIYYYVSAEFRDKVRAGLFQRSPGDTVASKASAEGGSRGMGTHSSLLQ
row,SMILES,EC50 [nM]
1,"COC(=O)c1ccc(C2(c3nc(COc4cc(OC)cc5oc(-c6cn7nc(OC)sc7n6)cc45)cs3)CCOCC2)cc1 [Example 160, Methyl 4-(4-(4-(((6-methoxy-2-(2-methoxyimidazo[2,1-b][1,3,4]thiadiazol-6-yl)benzofuran-4-yl)oxy)methyl)thiazol-2-yl)tetrahydro-2H-pyran-4-yl)benzoate]",0.5
2,CCN(C(=O)c1ccc(-c2nc(COc3cc(OC)cc4oc(-c5cn6nc(OC)sc6n5)cc34)cs2)cc1)C(C)C [Example 287],0.48
3,COc1cc(OCc2csc(C3(c4ccc(C)cc4)CCOCC3)n2)c2cc(-c3cn4nc(C)ccc4n3)oc2c1 [Example 242],0.59
4,COc1cc(OCc2csc(NCc3cccc(N(C)C)c3)n2)c2cc(-c3cn4nc(C)ccc4n3)oc2c1 [Example 269],2.5
5,COc1cc(OCc2nc(-c3cccc(COC(C)=O)c3)sc2C)c2cc(-c3cn4nc(C)ccc4n3)oc2c1 [Example 229],0.76
6,COc1cc(OCc2nc(-c3cccc(CO)c3)sc2C)c2cc(-c3cn4nc(C)ccc4n3)oc2c1 [Example 230],1.3
7,CCN(CCC#N)C(=O)c1ccc(-c2nc(COc3cc(OC)cc4oc(-c5cn6nc(OC)sc6n5)cc34)cs2)cc1 [Example 292],0.27
8,CCN(C)C(=O)c1ccc(-c2nc(COc3cc(OC)cc4oc(-c5cn6nc(OC)sc6n5)cc34)cs2)cc1 [Example 308],0.64
9,"COc1cc(OCc2csc(-c3ccc(C(=O)NC(C)(C)C)cc3)n2)c2cc(-c3cn4nc(OC)sc4n3)oc2c1 [Example 41, N-(tert-Butyl)-4-(4-(((6-methoxy-2-(2-methoxyimidazo[2,1-b][1,3,4]thiadiazol-6-yl)benzofuran-4-yl)oxy)methyl)thiazol-2-yl)benzamide]",0.9
10,"CNC(=O)c1ccc(-c2nc(COc3cc(OC)cc4oc(-c5cn6nc(OC)sc6n5)cc34)c(C)s2)cc1 [Example 49, 4-(4-(((6-Methoxy-2-(2-methoxyimidazo[2,1-b][1,3,4]thiadiazol-6-yl)benzofuran-4-yl)oxy)methyl)-5-methylthiazol-2-yl)-N-methylbenzamide]",0.82
11,"COc1cc(OCc2csc(N3CCN(C(=O)OC(C)(C)C)CC3)n2)c2cc(-c3cn4nc(OC)sc4n3)oc2c1 [Example 99, tert-Butyl 4-(4-(((6-methoxy-2-(2-methoxyimidazo[2,1-b][1,3,4]thiadiazol-6-yl)benzofuran-4-yl)oxy)methyl)thiazol-2-yl)piperazine-1-carboxylate]",0.84
12,COCCNc1nc(COc2cc(OC)cc3oc(-c4cn5nc(C)ccc5n4)cc23)cs1 [Example 251],11
13,"COc1cc(OCc2csc(C3(NC(=O)CN(C)C)CCOCC3)n2)c2cc(-c3cn4nc(OC)sc4n3)oc2c1 [Example 174, 2-(Dimethylamino)-N-(4-(4-(((6-methoxy-2-(2-methoxyimidazo[2,1-b][1,3,4]thiadiazol-6-yl)benzofuran-4-yl)oxy)methyl)-thiazol-2-yl)tetrahydro-2H-pyran-4-yl)acetamide]",24
14,COc1cc(OCc2csc(CC(C)C)n2)c2cc(-c3cn4nc(OC)sc4n3)oc2c1 [Example 50],0.21
15,"COc1nn2cc(-c3cc4c(OCc5csc(-c6ccccc6)n5)cccc4o3)nc2s1 [Example 191, 2-Methoxy-6-(4-((2-phenylthiazol-4-yl)methoxy)benzofuran-2-yl)imidazo[2,1-b][1,3,4]thiadiazole]",2.6
16,COc1cc(OCc2csc(Nc3cccc(C)c3)n2)c2cc(-c3cn4nc(C)ccc4n3)oc2c1 [Example 267],4.2
17,"COc1cc(OCc2csc(C3(O)CCC(C(=O)OC(C)(C)C)CC3)n2)c2cc(-c3cn4nc(OC)sc4n3)oc2c1 (stereo not drawn) [Example 149, tert-Butyl 4-hydroxy-4-(4-(((6-methoxy-2-(2-methoxyimidazo[2,1-b][1,3,4]thiadiazol-6-yl)benzofuran-4-yl)oxy)methyl)thiazol-2-yl)cyclohexanecarboxylate]",4.1
18,COc1cc(OCc2nc(-c3ccccc3)sc2C)c2cc(-c3cn4nc(OC)sc4n3)oc2c1 [Example 13],2.1
19,"COc1cc(OCc2csc(C3(NC(=O)CNC(=O)OC(C)(C)C)CCOCC3)n2)c2cc(-c3cn4nc(OC)sc4n3)oc2c1 [Example 173, tert-Butyl (2-((4-(4-(((6-methoxy-2-(2-methoxyimidazo-[2,1-b][1,3,4]thiadiazol-6-yl)benzofuran-4-yl)oxy)methyl)-thiazol-2-yl)tetrahydro-2H-pyran-4-yl)amino)-2-oxoethyl)carbamate]",0.67
20,COc1cc(OCc2csc(CCC(F)(F)F)n2)c2cc(-c3cn4nc(OC)sc4n3)oc2c1 [Example 58],0.33
21,COc1cc(OCc2nc(-c3ccc(C(=O)N(C)C)cc3)sc2C)c2cc(-c3cn4nc(OC)sc4n3)oc2c1 [Example 66],0.75
22,COc1cc(OCc2csc(-c3ccc(C(=O)N(C4CC4)C4CC4)cc3)n2)c2cc(-c3cn4nc(OC)sc4n3)oc2c1 [Example 316],0.95
23,"COC(=O)c1ccc(-c2nc(COc3cc(OC)cc4oc(-c5cn6nc(OC)sc6n5)cc34)cs2)cc1 [Example 37, Methyl 4-(4-(((6-methoxy-2-(2-methoxyimidazo[2,1-b][1,3,4]thiadiazol-6-yl)benzofuran-4-yl)oxy)methyl)thiazol-2-yl)benzoate]",0.45
24,COc1cc(OCc2csc(C(C)(O)C(F)(F)F)n2)c2cc(-c3cn4nc(OC)sc4n3)oc2c1 (stereo not drawn) [Example 143],0.39
25,C[C@H](F)c1nn2cc(-c3cc4c(OCc5csc(-c6ccccc6)n5)cc(F)cc4o3)nc2s1 [Example 195],1.3
26,COc1cc(OCc2csc(-c3ccc(COC(C)=O)cc3)n2)c2cc(-c3cn4nc(OC)sc4n3)oc2c1 [Example 68],0.49
27,COc1cc(OCc2csc(-c3ccc(C(=O)N4CCC4)cc3)n2)c2cc(-c3cn4nc(OC)sc4n3)oc2c1 [Example 289],1.2
28,"COc1cc(OCc2nc(C3CCOCC3)sc2C)c2cc(-c3cn4nc(OC)sc4n3)oc2c1 [Example 95, 2-Methoxy-6-(6-methoxy-4-((5-methyl-2-(tetrahydro-2H-pyran-4-yl)thiazol-4-yl)methoxy)benzofuran-2-yl)imidazo[2,1-b][1,3,4]thiadiazole]",0.83
29,COc1cc(OCc2csc(-c3ccc(C(=O)N4C(C)CCC4C)cc3)n2)c2cc(-c3cn4nc(OC)sc4n3)oc2c1 (stereo not drawn) [Example 317],1.6

# Further lines, results first:
row,EC50 [nM],SMILES
1,0.96,COCCC(C)(F)c1nc(COc2cc(OC)cc3oc(-c4cn5nc(OC)sc5n4)cc23)cs1 (stereo not drawn) [Example 147]
2,1.2,CCNC(=O)c1ccc(-c2nc(COc3cc(OC)cc4oc(-c5cn6nc(OC)sc6n5)cc34)cs2)cc1 [Example 306]
3,0.37,COc1cc(OCc2csc(-c3ccc(C(=O)N(C)CC4CC4)cc3)n2)c2cc(-c3cn4nc(OC)sc4n3)oc2c1 [Example 314]
4,1.4,"COc1cc(OCc2csc(C(C)(C)c3ccccc3)n2)c2cc(-c3cn4nc(OC)sc4n3)oc2c1 [Example 175, 2-Methoxy-6-(6-methoxy-4-((2-(2-phenylpropan-2-yl)thiazol-4-yl)methoxy)benzofuran-2-yl)imidazo[2,1-b][1,3,4]thiadiazole]"
5,0.86,"COc1cc(OCc2csc(C3CCN(S(=O)(=O)C(C)C)CC3)n2)c2cc(-c3cn4nc(OC)sc4n3)oc2c1 [Example 111, 6-(4-((2-(1-(Isopropylsulfonyl)piperidin-4-yl)thiazol-4-yl)methoxy)-6-methoxybenzofuran-2-yl)-2-methoxyimidazo[2,1-b][1,3,4]thiadiazole]"
6,0.58,COc1cc(OCc2csc(N3CCC(C)CC3)n2)c2cc(-c3cn4nc(C)ccc4n3)oc2c1 [Example 259]
7,3.5,COc1cc(OCc2csc(N3CCN(S(=O)(=O)c4ccc(C#N)cc4)CC3)n2)c2cc(-c3cn4nc(C)ccc4n3)oc2c1 [Example 237]
8,0.98,COc1cc(OCc2csc(-c3ccc(F)cc3)n2)c2cc(-c3cn4nc(OC)sc4n3)oc2c1 [Example 15]
9,0.66,COc1cc(OCc2csc(-c3ccc(S(C)(=O)=O)cc3)n2)c2cc(-c3cn4nc(C)ccc4n3)oc2c1 [Example 234]
10,0.97,"COc1cc(OCc2csc(C3(c4ccccc4F)CCOC3)n2)c2cc(-c3cn4nc(OC)sc4n3)oc2c1 (stereo not drawn) [Example 166, 6-(4-((2-(3-(2-Fluorophenyl)tetrahydrofuran-3-yl)thiazol-4-yl)methoxy)-6-methoxybenzofuran-2-yl)-2-methoxyimidazo[2,1-b][1,3,4]thiadiazole]"
11,1.3,COc1cc(OCc2csc(-c3cnccn3)n2)c2cc(-c3cn4nc(OC)sc4n3)oc2c1 [Example 32]
12,0.3,"COc1nn2cc(-c3cc4c(OCc5csc(-c6ccc(C(=O)N(C)C(C)(C)C)cc6)n5)cc(F)cc4o3)nc2s1 [Example 182, N-(tert-Butyl)-4-(4-(((6-fluoro-2-(2-methoxyimidazo[2,1-b][1,3,4]thiadiazol-6-yl)benzofuran-4-yl)oxy)methyl)thiazol-2-yl)-N-methylbenzamide]"
13,0.64,COc1cc(OCc2csc(-c3cccc(C#N)c3)n2)c2cc(-c3cn4nc(OC)sc4n3)oc2c1 [Example 61]
